Values of other authors as cited in patent US20230139565A1 (GLANIS PHARMACEUTICALS, INC., priority 2020, published 2023).
Counter-ions that a name gives are not always drawn.

Legend:
[1] = tested on: albumin and aphal-acid glycoprotein
[2] = not given; remark: listed apart in the source

Row | Structure (SMILES) | protein binding [1] | terminal half-life based on blood concentration (blood) | time of peak concentration (following 200 mg oral dose) | peak concentration in blood (following 200 mg oral dose, blood) | plasma concentration (peak) (following 200 mg oral dose, plasma) | half-life (in vivo) | volume of distribution (in vivo) | oral bioavailability (oral tablet) | solubility in alcohol, chloroform, and in ether ([2]; alcohol, chloroform, ether) | solubility in water ([2]; water)
1 | CCN(CCO)CCCC(C)Nc1ccnc2cc(Cl)ccc12 (stereo not shown) [HCQ, Hydroxychloroquine] | ~40% | 30 to 60 days | around 3 hours | around 129.6 ng/ml | around 50.3 ng/ml | ~2.08 days | high volume of distribution | about 75% |  | 
2 | CCN(CCO)CCCC(C)Nc1ccnc2cc(Cl)ccc12 (stereo not shown) [Hydroxychloroquine sulfate] |  |  |  |  |  |  |  |  | practically insoluble | freely soluble
